# Reference: patent US8173694B2, “Therapeutic agent” (Pentraxin Therapeutics Limited, priority 2001, dated 2012)
# Assays:
# [1] = molecular target: T1, plasma SAP (Homo sapiens, UniProt P02743); assay: Subcutaneous injection in patients with systemic amyloidosis: plasma SAP; type: in vivo; details: subcutaneous injection 0.25 mg/kg/day in 12 hourly divided doses
# T1 construct: from tissue; host or cells: plasma of patients in vivo
# Description: The doses of (R)-1-[6-(R)-2-Carboxy-pyrrolidin-1-yl]-6-oxo-hexanoyl]pyrrolidine-2-carboxylic acid (desapin) shown were given by 12 hourly subcutaneous injections to two individual patients with systemic amyloidosis, and with small and moderate amyloid loads respectively. The disappearance of circulating SAP was effectively the same as during intravenous infusion of the drug, and in the patient illustrated in the right panel, who had received a tracer dose of ^123I-SAP, there was accumulation of SAP in the liver and accelerated clearance from the spleen.
# [2] = Metabolism, excretion and oral bioavailability in mice; type: in vivo, mouse
# [3] = system: SAP; assay: SAP binding to experimentally induced amyloid deposits in mice; type: in vivo, mouse; details: compared with 1-(3-Mercapto-2-methyl-1-oxopropyl)-D-proline
# Source text: The potency of (R)-1-[6-(R)-2-Carboxy-pyrrolidin-1-yl]-6-oxo-hexanoyl]pyrrolidine-2-carboxylic acid in vivo was initially considered to be consistent with its lower IC50 value in vitro. However the decameric assembly of pentameric SAP molecules, induced by the cross linking capacity of the palindromic drug, is an abnormal molecular configuration which, according to the present invention, will be recognised in vivo and promptly cleared from the circulation. This action of the drug, leading to massive depletion of SAP from the plasma, makes a critical contribution to removal of SAP from the amyloid deposits because the SAP in amyloid is derived from, and in equilibrium with, the plasma SAP pool.
# [4] = molecular target: T2, circulating SAP (Mus musculus, UniProt P12246); assay: Circulating SAP in normal wild type mice; type: in vivo; details: none of the routes caused depletion
# T2 construct: all the endogenous mouse SAP in the deposits; from tissue; host or cells: mice in vivo: amyloidotic organs, or plasma of normal wild type mice
# T2 sequence (P12246 21-224): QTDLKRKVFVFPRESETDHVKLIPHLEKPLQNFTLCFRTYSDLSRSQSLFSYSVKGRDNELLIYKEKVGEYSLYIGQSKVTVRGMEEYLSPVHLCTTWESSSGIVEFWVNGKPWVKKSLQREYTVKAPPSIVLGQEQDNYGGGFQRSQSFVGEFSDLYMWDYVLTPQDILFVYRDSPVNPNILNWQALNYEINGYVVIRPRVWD
# Description: When (R)-1-[6-(R)-2-Carboxy-pyrrolidin-1-yl]-6-oxo-hexanoyl]pyrrolidine-2-carboxylic acid was administered by continuous infusion for 5 days via an indwelling osmotic pump, it dissociated both radiolabelled human SAP tracer, with which the amyloid deposits had previously been loaded, and all the endogenous mouse SAP in the deposits (FIG. 3). […] The SAP-(R)-1-[6-(R)-2-Carboxy-pyrrolidin-1-yl]-6-oxo-hexanoyl]pyrrolidine-2-carboxylic acid complex is evidently recognised as abnormal in vivo and swiftly removed from the circulation, but is apparently formed and/or cleared less efficiently in vivo with mouse SAP compared to human SAP.
# [5] = molecular target: T1, plasma SAP; assay: Intravenous infusion for 48 h in patients: plasma SAP by electroimmunoassay; type: in vivo
# Description: Patients with different forms of systemic amyloidosis, and with varying amyloid loads received the doses of the drug shown for a period of 48 h. Circulating SAP values were measured by electroimmunoassay (24) in samples taken during and after the infusion, at the times shown. Each line represents a different individual patient.
# (R)-1-[6-(R)-2-Carboxy-pyrrolidin-1-yl]-6-oxo-hexanoyl]pyrrolidine-2-carboxylic acid was administered for 48 h by intravenous infusion to 8 patients with systemic amyloidosis (7 with AL and one with AA type), one patient with minor localised AL amyloidosis, and one who is a carrier of the amyloidogenic Ala60 transthyretin variant but has no clinical amyloidosis. […] In initial studies with slow continuous infusion, the SAP concentration started to fall when about 2 mg of (R)-1-[6-(R)-2-Carboxy-pyrrolidin-1-yl]-6-oxo-hexanoyl]pyrrolidine-2-carboxylic acid had been given, and in subsequent studies this amount was therefore injected as a bolus at the outset, followed by infusion at the rates shown (FIG. 4). […] However, after drug infusion had ceased, the plasma SAP concentration rapidly returned to normal in the individuals with little or no amyloid, whereas this recovery was markedly delayed in subjects with significant amyloidosis. In the one patient with a very heavy amyloid load, the plasma SAP concentration remained below 25% of its initial value 20 days after the infusion. Most of the daily production of SAP, which is about 50-100 mg per day (15), was evidently distributing into the amyloid deposits before becoming available to replete the plasma pool. This is very strong indirect evidence that even such a brief infusion of (R)-1-[6-(R)-2-Carboxy-pyrrolidin-1-yl]-6-oxo-hexanoyl]pyrrolidine-2-carboxylic acid had substantially depleted the amyloid-associated SAP.
# Two individual patients with systemic amyloidosis and moderate amyloid loads received (R)-1-[6-(R)-2-Carboxy-pyrrolidin-1-yl]-6-oxo-hexanoyl]pyrrolidine-2-carboxylic acid (desapin) by intravenous infusion at the steady rates shown. Circulating SAP concentrations started to fall almost immediately and had halved when the concentrations of drug and SAP protomer were equimolar.
# The potency of (R)-1-[6-(R)-2-Carboxy-pyrrolidin-1-yl]-6-oxo-hexanoyl]pyrrolidine-2-carboxylic acid in depleting circulating SAP was remarkable, with SAP values falling when the concentration ratio of drug to SAP pentamer in the plasma approached equimolar (FIG. 7). […] This is evidently the species recognised as abnormal and promptly cleared by the liver.
# [6] = molecular target: T3, radiolabelled mouse SAP (Mus musculus, UniProt P12246); assay: Plasma clearance of radiolabelled mouse SAP tracer in mice; type: in vivo
# T3 construct: intravenous injection of ^125I-labelled pure human or mouse SAP at time zero
# T3 sequence (P12246 21-224): T2 sequence (P12246 21-224)
# Description: Clearance from the amyloid deposits, catabolism and excretion of the human SAP tracer were monitored globally by whole body counting of the mice (left), and the total amount of mouse SAP in the amyloidotic organs was determined after killing the animals on day 5 (right). […] Immediately after the 15 minute bleed, two groups, one that had received human SAP and the other mouse SAP, received a single intraperitoneal injection of 5 mg of (R)-1-[6-(R)-2-Carboxy-pyrrolidin-1-yl]-6-oxo-hexanoyl]pyrrolidine-2-carboxylic acid (desapin). Tracer remaining in the circulation is expressed as the mean (SD) percentage of the amount at the 15 minute time point for each group. […] In one of each of the pairs of groups receiving mouse or human SAP respectively, the tracer had been mixed with (R)-1-[6-(R)-2-Carboxy-pyrrolidin-1-yl]-6-oxo-hexanoyl]pyrrolidine-2-carboxylic acid (desapin) and incubated in vitro before injection into the animals. Tracer remaining in the circulation is expressed as mean (SD) total radioactivity per gram of blood in each group. Bottom panel: effect of administration of (R)-1-[6-(R)-2-Carboxy-pyrrolidin-1-yl]-6-oxo-hexanoyl]pyrrolidine-2-carboxylic acid (desapin) in the drinking water at the concentrations shown, on circulating human SAP values in human SAP transgenic mice. Mice of approximately 20 g body weight consume about 3 ml water per day. […]
# T1 sequence (P02743 20-223): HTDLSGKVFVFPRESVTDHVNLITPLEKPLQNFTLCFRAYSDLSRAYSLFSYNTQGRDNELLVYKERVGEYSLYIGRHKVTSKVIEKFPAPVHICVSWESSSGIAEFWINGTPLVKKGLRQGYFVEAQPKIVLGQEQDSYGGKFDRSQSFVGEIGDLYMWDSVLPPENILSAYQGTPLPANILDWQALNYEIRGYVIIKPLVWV
compound,measurement,setting,value
O=C(O)[C@H]1CCCN1C(=O)CCCCC(=O)N1CCC[C@@H]1C(=O)O [(R)-1-[6-(R)-2-Carboxy-pyrrolidin-1-yl]-6-oxo-hexanoyl]pyrrolidine-2-carboxylic acid],Effect on plasma SAP compared with intravenous infusion,[1],the same effect
same,Excretion,[2],"very rapidly excreted, predominantly in the urine, with a small amount in the bile"
same,Metabolism,[2],not metabolised
same,Oral bioavailability,[2],very limited oral bioavailability
same,"Activity in inhibiting SAP binding and dissociating SAP from deposits, relative to lead compound",[3],more active
same,Routes that caused depletion of circulating SAP in normal wild type mice,[4],"neither oral administration, nor intermittent injection or continuous infusion"
same,SAP clearance from plasma by the end of the infusion,[5]; 0.25 mg/kg/day and all higher rates up to 6 mg/kg/day,almost completely cleared
same,Depletion of circulating SAP,"[5]; 48 h intravenous infusion, all 10 subjects","dramatic, rapid, and consistent depletion"
same,"Plasma SAP concentration, of its initial value","[5]; 20 days after the infusion, one patient with very heavy amyloid load",below 25%
same,SAP depletion,[5]; infusion rate 0.1 mg/kg/day,slower and less complete
same,Amount of drug given when SAP concentration started to fall,[5]; slow continuous intravenous infusion,about 2 mg
same,Circulating SAP concentration when drug and SAP protomer concentrations were equimolar,"[5]; two patients, 48 h intravenous infusion",halved
same,Clearance of radiolabelled mouse SAP,[6]; single intraperitoneal injection of 5 mg,no significant effect
same,Clearance of radiolabelled mouse SAP preincubated with drug in vitro,[6]; tracer preincubated with drug before intravenous injection into normal mice,extremely rapidly cleared
